Laboratory results from the NIST ThermoML archive (doi:10.1021/acs.jced.6b00430).
± gives the expanded uncertainty stated by the source.

Assay: xn = mol fraction of the nth substance listed
Conditions: 100 kPa, Liquid; for viscosity: Capillary tube (Ostwald / Ubbelohde) method; for mass density: Vibrating tube method; for electrical conductivity: Alternating current cell with electrodes

O=[PH](O)O [phosphonic acid] + O
Conditions | electrical conductivity, 328.15 K [S/m] | electrical conductivity, 338.15 K [S/m] | mass density, 318.15 K [kg/m3] | mass density, 328.15 K [kg/m3] | mass density, 338.15 K [kg/m3] | viscosity, 318.15 K [mPa·s] | viscosity, 328.15 K [mPa·s] | viscosity, 338.15 K [mPa·s]
x1 = 0.0122 | 8.38 ± 0.84 | 8.4 ± 0.84 | 1013.66 ± 10 | 1009.46 ± 10 | 1001.4 ± 10 | – | 0.529 ± 0.032 | 0.464 ± 0.028
x1 = 0.0215 | 12.1 ± 1.2 | 12.2 ± 1.2 | 1030.98 ± 10 | 1026.28 ± 10 | 1018.77 ± 10 | – | 0.567 ± 0.034 | 0.49 ± 0.03
x1 = 0.0299 | 15.3 ± 1.5 | 15.6 ± 1.6 | 1045.97 ± 10 | 1041.02 ± 10 | 1033.72 ± 10 | – | 0.617 ± 0.037 | 0.531 ± 0.032
x1 = 0.0403 | 19.6 ± 2 | 20.3 ± 2 | 1063.78 ± 10 | 1058.55 ± 10 | 1051.48 ± 10 | – | – | –
x1 = 0.0451 | – | – | 1072.47 ± 10 | 1066.53 ± 10 | 1060.26 ± 10 | – | – | –
x1 = 0.0484 | 21.9 ± 2.2 | 22.9 ± 2.3 | 1077.26 ± 10 | 1071.83 ± 10 | 1064.9 ± 10 | – | – | –
x1 = 0.0541 | 23.5 ± 2.4 | 24.2 ± 2.4 | 1086.62 ± 10 | 1081.05 ± 10 | 1074.21 ± 10 | – | – | –
x1 = 0.0682 | 26.5 ± 2.7 | 27.7 ± 2.8 | 1108.74 ± 10 | 1102.88 ± 10 | 1096.19 ± 10 | – | – | –
x1 = 0.0704 | 26.9 ± 2.7 | 28.2 ± 2.8 | 1112.04 ± 10 | 1106.07 ± 10 | 1099.46 ± 10 | – | 0.866 ± 0.052 | 0.749 ± 0.045
x1 = 0.0799 | 28.6 ± 2.9 | 30 ± 3 | 1126.27 ± 10 | 1120.18 ± 10 | 1113.58 ± 10 | – | – | –
x1 = 0.0832 | – | – | 1130.94 ± 10 | 1124.84 ± 10 | 1118.32 ± 10 | – | – | –
x1 = 0.1011 | 31 ± 3.1 | 32.9 ± 3.3 | 1156.21 ± 10 | 1149.89 ± 10 | 1143.23 ± 10 | – | 1.07 ± 0.06 | 0.922 ± 0.056
x1 = 0.1335 | 33.3 ± 3.3 | 35.3 ± 3.5 | 1198.05 ± 10 | 1191.35 ± 10 | 1184.38 ± 10 | 1.66 ± 0.1 | 1.35 ± 0.08 | 1.16 ± 0.07
x1 = 0.1689 | 33.8 ± 3.4 | 35.5 ± 3.6 | 1238.7 ± 10 | 1231.63 ± 10 | 1224.52 ± 10 | – | – | –
x1 = 0.1909 | 33.3 ± 3.3 | 35 ± 3.5 | 1261.54 ± 10 | 1254.36 ± 10 | 1246.94 ± 10 | – | – | –
x1 = 0.197 | 33.2 ± 3.3 | 34.9 ± 3.5 | 1267.22 ± 10 | 1259.95 ± 10 | 1252.51 ± 10 | – | – | –
x1 = 0.2154 | 32.5 ± 3.3 | 34.1 ± 3.4 | 1285.38 ± 10 | 1277.98 ± 10 | 1270.41 ± 10 | 2.68 ± 0.16 | 2.2 ± 0.13 | 1.88 ± 0.11
x1 = 0.2524 | 31.3 ± 3.1 | 33.5 ± 3.4 | 1317.07 ± 10 | 1309.72 ± 10 | 1301.38 ± 10 | 3.27 ± 0.2 | 2.65 ± 0.16 | 2.25 ± 0.14
x1 = 0.292 | 30.2 ± 3 | 32.4 ± 3.2 | 1347.86 ± 10 | 1340.42 ± 10 | 1331.63 ± 10 | 3.9 ± 0.24 | 3.14 ± 0.19 | 2.66 ± 0.16
x1 = 0.3959 | 24.1 ± 2.4 | 25.9 ± 2.6 | 1418.01 ± 10 | 1409.83 ± 10 | 1401.65 ± 10 | – | – | –
